What was measured:
Assay in all cases: KinaseProfiler panel
Format in all cases: biochemical
Design in all cases: dose or concentration left out as unconfirmed
Details in all cases: activity remaining
[1] = molecular target: MYLK2(h) (Homo sapiens (Human), UniProt Q9H1R3)
[2] = molecular target: PRK1(h) (Homo sapiens (Human), UniProt Q16512)
[3] = molecular target: Plk3(h) (Homo sapiens (Human), UniProt Q9H4B4)
[4] = molecular target: CaMKK1(h) (Homo sapiens (Human), UniProt Q8N5S9)
[5] = molecular target: MLK2(h) (Homo sapiens (Human), UniProt Q02779)
[6] = molecular target: DNA-PK(h) (Homo sapiens (Human), UniProt P78527)
[7] = molecular target: Arg(h) (Homo sapiens (Human), UniProt P42684)
[8] = molecular target: p70S6K(h) (Homo sapiens (Human), UniProt P23443)
[9] = molecular target: PRAK(h) (Homo sapiens (Human), UniProt Q8IW41)
[10] = molecular target: CDK3/cyclinE(h) (Homo sapiens (Human), UniProt Q00526)
[11] = molecular target: EphA5(h) (Homo sapiens (Human), UniProt P54756)
[12] = molecular target: Bmx(h) (Homo sapiens (Human), UniProt P51813)
[13] = molecular target: Axl(h) (Homo sapiens (Human), UniProt P30530)
[14] = molecular target: Fer(h) (Homo sapiens (Human), UniProt P16591)
[15] = molecular target: PKCι(h) (Homo sapiens (Human), UniProt P41743)
[16] = molecular target: ALK4(h) (Homo sapiens (Human), UniProt P36896)
[17] = molecular target: FGFR3(h) (Homo sapiens (Human), UniProt P22607)
[18] = molecular target: CDK2/cyclinE(h) (Homo sapiens (Human), UniProt P24941)
[19] = molecular target: LTK(h) (Homo sapiens (Human), UniProt P29376)
[20] = molecular target: TrkB(h) (Homo sapiens (Human), UniProt Q16620)
[21] = molecular target: STK16(h) (Homo sapiens (Human), UniProt O75716)
[22] = molecular target: EphB2(h) (Homo sapiens (Human), UniProt P29323)
[23] = molecular target: MAP4K4(h) (Homo sapiens (Human), UniProt O95819)
[24] = molecular target: Met(h) (Homo sapiens (Human), UniProt P08581)
[25] = molecular target: CLIK1(h) (Homo sapiens (Human), UniProt Q8TDR2)
[26] = molecular target: MSK1(h) (Homo sapiens (Human), UniProt O75582)
[27] = molecular target: CaMKIγ(h) (Homo sapiens (Human), UniProt Q96NX5)
[28] = molecular target: Yes(h) (Homo sapiens (Human), UniProt P07947)
[29] = molecular target: c-RAF(h) (Homo sapiens (Human), UniProt P04049)
[30] = molecular target: CDK9/cyclin T1(h) (Homo sapiens (Human), UniProt P50750)
[31] = molecular target: EGFR(h) (Homo sapiens (Human), UniProt P00533)
[32] = molecular target: EphB3(h) (Homo sapiens (Human), UniProt P54753)
[33] = molecular target: Snk(h) (Homo sapiens (Human), UniProt Q9NYY3)

Sequence of Met(h) (P08581 25-1390): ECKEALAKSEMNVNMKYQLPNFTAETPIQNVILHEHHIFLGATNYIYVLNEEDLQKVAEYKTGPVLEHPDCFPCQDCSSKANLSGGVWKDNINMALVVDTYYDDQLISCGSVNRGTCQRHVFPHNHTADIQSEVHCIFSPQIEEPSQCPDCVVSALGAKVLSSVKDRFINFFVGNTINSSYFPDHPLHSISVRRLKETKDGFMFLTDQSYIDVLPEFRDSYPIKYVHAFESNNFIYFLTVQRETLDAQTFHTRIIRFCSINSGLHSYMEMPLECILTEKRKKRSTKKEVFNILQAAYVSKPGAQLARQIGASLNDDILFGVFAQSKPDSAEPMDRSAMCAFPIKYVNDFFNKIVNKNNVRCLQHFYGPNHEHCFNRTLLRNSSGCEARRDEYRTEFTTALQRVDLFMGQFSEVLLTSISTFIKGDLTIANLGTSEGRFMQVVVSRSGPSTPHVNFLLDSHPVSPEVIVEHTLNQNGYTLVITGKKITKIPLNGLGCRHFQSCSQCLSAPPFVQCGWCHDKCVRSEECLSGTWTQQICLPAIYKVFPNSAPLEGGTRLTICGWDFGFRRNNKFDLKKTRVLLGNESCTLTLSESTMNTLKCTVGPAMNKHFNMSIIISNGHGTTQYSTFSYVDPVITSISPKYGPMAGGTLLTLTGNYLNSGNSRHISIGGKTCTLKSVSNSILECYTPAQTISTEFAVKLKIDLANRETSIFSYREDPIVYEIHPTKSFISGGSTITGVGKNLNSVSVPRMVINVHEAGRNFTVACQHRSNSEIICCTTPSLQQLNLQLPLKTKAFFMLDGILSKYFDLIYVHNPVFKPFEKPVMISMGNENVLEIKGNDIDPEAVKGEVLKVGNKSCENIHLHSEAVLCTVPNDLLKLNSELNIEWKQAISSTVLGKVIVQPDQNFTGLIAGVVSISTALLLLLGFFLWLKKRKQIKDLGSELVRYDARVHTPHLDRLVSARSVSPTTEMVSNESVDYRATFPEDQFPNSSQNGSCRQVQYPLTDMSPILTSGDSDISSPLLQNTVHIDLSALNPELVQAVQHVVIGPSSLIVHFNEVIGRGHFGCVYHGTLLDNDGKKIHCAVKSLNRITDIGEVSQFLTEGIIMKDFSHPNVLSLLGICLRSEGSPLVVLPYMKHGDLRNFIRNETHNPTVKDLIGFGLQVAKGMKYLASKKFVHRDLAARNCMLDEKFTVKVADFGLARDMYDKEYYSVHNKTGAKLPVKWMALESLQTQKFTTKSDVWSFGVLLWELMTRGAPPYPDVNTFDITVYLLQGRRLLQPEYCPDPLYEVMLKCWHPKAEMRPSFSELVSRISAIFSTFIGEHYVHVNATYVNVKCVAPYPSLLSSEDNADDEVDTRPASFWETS
Sequence of PRAK(h) (Q8IW41 whole entry): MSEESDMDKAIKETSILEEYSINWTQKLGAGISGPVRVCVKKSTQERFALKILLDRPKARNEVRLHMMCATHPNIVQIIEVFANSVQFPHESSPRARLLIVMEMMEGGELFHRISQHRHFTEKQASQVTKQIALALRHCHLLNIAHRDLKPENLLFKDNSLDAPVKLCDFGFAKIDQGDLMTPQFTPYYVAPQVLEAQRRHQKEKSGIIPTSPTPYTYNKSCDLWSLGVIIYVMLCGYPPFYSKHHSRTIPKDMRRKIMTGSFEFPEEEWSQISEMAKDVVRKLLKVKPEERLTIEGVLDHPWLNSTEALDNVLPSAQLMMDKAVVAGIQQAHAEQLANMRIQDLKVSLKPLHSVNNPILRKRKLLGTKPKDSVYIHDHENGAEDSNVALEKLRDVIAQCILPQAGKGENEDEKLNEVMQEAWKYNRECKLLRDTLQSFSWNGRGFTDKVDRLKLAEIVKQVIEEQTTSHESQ
Sequence of EphA5(h) (P54756 25-1037): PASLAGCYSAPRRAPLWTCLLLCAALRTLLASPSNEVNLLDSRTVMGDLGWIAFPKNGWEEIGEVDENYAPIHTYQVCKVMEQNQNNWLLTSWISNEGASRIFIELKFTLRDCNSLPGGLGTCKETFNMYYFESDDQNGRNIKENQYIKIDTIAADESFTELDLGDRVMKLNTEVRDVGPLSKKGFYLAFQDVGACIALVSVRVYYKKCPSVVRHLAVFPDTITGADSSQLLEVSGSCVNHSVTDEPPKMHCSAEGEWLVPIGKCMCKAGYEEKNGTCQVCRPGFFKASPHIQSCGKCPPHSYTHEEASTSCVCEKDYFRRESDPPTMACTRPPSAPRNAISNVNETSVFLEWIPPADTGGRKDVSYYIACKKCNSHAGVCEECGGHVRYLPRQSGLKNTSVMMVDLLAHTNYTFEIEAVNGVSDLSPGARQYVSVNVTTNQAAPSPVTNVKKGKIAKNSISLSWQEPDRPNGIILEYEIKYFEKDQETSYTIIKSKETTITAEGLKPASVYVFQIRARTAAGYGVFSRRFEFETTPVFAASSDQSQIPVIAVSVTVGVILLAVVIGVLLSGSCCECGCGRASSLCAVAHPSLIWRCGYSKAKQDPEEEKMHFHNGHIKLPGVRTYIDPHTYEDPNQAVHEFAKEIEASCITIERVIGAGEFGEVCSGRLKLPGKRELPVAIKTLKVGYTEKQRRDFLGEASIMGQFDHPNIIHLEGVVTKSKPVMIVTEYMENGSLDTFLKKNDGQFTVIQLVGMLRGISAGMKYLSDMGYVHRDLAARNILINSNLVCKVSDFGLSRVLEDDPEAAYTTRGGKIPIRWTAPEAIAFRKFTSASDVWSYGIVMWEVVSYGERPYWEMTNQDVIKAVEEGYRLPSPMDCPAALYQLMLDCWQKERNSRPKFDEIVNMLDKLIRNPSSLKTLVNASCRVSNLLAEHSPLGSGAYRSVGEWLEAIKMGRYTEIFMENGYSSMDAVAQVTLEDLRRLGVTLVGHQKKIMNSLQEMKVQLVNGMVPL
Sequence of MYLK2(h) (Q9H1R3 whole entry): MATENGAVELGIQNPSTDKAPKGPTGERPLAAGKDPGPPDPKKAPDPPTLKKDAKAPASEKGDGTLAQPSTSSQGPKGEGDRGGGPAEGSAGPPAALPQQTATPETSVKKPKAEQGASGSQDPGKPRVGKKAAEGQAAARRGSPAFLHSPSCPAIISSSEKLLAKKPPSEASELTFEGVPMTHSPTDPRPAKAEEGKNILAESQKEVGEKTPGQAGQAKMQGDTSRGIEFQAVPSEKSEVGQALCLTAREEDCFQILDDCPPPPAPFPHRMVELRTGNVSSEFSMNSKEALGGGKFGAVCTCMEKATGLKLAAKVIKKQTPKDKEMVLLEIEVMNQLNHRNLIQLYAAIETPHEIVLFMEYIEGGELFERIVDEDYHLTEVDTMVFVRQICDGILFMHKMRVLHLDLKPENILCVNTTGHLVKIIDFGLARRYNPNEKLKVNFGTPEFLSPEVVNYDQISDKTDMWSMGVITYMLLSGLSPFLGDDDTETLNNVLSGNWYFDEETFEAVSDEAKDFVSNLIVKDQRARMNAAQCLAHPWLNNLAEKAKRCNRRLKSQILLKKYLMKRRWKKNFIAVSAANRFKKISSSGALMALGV
Sequence of Plk3(h) (Q9H4B4 whole entry): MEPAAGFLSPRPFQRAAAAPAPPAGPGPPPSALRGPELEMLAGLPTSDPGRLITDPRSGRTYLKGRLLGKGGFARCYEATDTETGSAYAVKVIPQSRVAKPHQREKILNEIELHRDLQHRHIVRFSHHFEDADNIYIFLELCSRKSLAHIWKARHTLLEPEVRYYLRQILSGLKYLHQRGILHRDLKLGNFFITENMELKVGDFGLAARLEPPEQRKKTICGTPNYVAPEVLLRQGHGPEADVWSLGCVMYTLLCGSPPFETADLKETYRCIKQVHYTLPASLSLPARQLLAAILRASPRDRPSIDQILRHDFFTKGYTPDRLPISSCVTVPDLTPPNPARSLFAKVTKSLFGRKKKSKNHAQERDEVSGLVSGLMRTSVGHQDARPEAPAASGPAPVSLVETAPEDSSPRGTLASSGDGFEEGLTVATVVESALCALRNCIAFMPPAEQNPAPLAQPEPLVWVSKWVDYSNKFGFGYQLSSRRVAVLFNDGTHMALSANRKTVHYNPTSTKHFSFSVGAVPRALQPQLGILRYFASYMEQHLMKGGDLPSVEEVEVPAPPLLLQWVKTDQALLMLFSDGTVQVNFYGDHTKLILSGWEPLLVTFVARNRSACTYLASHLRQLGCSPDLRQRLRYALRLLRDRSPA
Sequence of PRK1(h) (Q16512 whole entry): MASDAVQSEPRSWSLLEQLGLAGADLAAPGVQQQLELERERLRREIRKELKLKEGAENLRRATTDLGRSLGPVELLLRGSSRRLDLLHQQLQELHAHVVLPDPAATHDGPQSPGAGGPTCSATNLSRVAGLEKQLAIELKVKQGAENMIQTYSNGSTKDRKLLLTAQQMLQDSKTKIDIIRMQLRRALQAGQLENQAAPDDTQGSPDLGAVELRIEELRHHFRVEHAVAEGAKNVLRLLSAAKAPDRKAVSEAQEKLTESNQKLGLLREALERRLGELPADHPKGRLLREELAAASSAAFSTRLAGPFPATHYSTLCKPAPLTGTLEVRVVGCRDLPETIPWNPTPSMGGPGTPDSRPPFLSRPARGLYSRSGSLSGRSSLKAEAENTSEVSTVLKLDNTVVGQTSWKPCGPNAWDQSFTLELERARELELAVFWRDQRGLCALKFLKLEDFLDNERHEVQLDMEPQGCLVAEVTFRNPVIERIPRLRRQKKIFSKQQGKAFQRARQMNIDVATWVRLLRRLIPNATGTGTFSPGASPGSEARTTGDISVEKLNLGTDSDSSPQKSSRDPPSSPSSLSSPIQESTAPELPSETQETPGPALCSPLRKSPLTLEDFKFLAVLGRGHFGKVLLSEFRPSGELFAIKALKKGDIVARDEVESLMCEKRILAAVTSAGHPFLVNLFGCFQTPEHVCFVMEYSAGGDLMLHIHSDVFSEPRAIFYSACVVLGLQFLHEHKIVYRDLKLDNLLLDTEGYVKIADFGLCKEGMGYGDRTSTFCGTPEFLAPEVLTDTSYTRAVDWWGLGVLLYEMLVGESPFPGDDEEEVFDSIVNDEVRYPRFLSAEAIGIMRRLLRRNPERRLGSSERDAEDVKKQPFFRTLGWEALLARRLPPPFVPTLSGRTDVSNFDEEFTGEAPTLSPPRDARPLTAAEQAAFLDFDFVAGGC

Compound: Cc1cc2c(-c3ccc(NC(=O)[C@H](N)CC(C)(C)C)cc3C)ccnc2[nH]1 [Compound F-90, (2R)-2-Amino-4,4-dimethyl-N-[3-methyl-4-(2-methyl-1H-pyrrolo[2,3-b]pyridin-4-yl)phenyl]pentanamide]
- % Activity [1]: 76%
- % Activity [2]: 91%
- % Activity [3]: 100%
- % Activity [4]: 89%
- % Activity [5]: 77%
- % Activity [6]: 107%
- % Activity [7]: 72%
- % Activity [8]: 93%
- % Activity [9]: 107%
- % Activity [10]: 102%
- % Activity [11]: 89%
- % Activity [12]: 97%
- % Activity [13]: 91%
- % Activity [14]: 103%
- % Activity [15]: 110%
- % Activity [16]: 94%
- % Activity [17]: 86%
- % Activity [18]: 92%
- % Activity [19]: 97%
- % Activity [20]: 84%
- % Activity [21]: 94%
- % Activity [22]: 96%
- % Activity [23]: 101%
- % Activity [24]: 90%
- % Activity [25]: 97%
- % Activity [26]: 111%
- % Activity [27]: 110%
- % Activity [28]: 87%
- % Activity [29]: 106%
- % Activity [30]: 81%
- % Activity [31]: 107%
- % Activity [32]: 79%
- % Activity [33]: 94%

From patent US20250243196A1, “CITRON KINASE INHIBITORS” (The Cleveland Clinic Foundation, priority 2021, published 2025)
